Laboratory results as given in patent US7625929B2, “Oxophenyl-cyclohexyl-propanolamine derivatives, production and use thereof in therapeutics” (sanofi-aventis, priority 2002, dated 2009).

| Compound | melting point [°C] |
| --- | --- |
| CS(=O)(=O)c1cc(OC[C@@H](O)CN[C@H]2CC[C@H](c3ccc(C(=O)N4CCC5(CCCc6ccccc65)CC4)cc3)CC2)ccc1O [compound No. 17, trans-4-{[(2S)-3-({4-[4-(3,4-dihydro-1′H-spiro[naphthalene-1,4′-piperidin]-1′-ylcarbonyl)phenyl]cyclohexyl}amino)-2-hydroxypropyl]-oxy}-2-(methylsulfonyl)phenol] | 125 |
| CS(=O)(=O)c1cc(OC[C@@H](O)CN[C@H]2CC[C@H](c3ccc(C(=O)N4CCC5(CCc6ccccc65)CC4)cc3)CC2)ccc1O [compound No. 15, trans-4-{[(2S)-3-({4-[4-(2,3-dihydro-1′H-spiro[indene-1,4′-piperidin]-1′-ylcarbonyl)phenyl]-cyclohexyl}amino)-2-hydroxypropyl]oxy}-2-(methylsulfonyl)phenol] | 125 |
| CS(=O)(=O)c1cc(OC[C@@H](O)CN[C@H]2CC[C@H](c3ccc(C(=O)N4CCC5(CC4)Cc4ccccc4C5)cc3)CC2)ccc1O [compound No. 13, trans-4-{[(2S)-3-({4-[4-(1,3-dihydro-1′H-spiro[indene-2,4′-piperidin]-1′-ylcarbonyl)phenyl]-cyclohexyl}amino)-2-hydroxypropyl]oxy}-2-(methylsulfonyl)phenol] | 125 |
